According to paper PMC10180065, “Mechanistic Studies of Arene–Ruthenium(II) Complexes with Carbothioamidopyrazoles as Alternative Cancer Drugs” (Molecules, 2023):

Columns and labels:
[1] = Lipophilicity by RP-TLC; assay type: physicochemical; design: key: RM = log(1/Rf − 1), Rf = a/b; settings: eluent AcCN: H2O at 30–70% v/v, 22 °C
Experimental: All the experimental solutions of standard substances (0.1 mg/mL) were prepared by dissolving ligands (1a–1d) or ruthenium complexes (2a/3a–2d/3d) in ethanol. Commercially-available octadecyl-modified silica aluminum sheets (20 × 20 cm) were cut into 5 × 10 cm plates. The plates were manually spotted with 1.0 μL of freshly prepared solutions using automatic pipets, 5 mm from each edge. The chromatograms for all compounds (1a/2a/3a–1d/2d/3d) were developed using a horizontal developing chamber and the solvent migration distance was about 4.5 cm. The plates were visually inspected under UV light at 254 nm. Each zone was clearly marked and its distance was manually measured. The RP-TLC analyses of lipophilicity were performed at ambient temperature (22 °C). In this experiment, all measurements were performed in triplicate and the obtained results were used in further calculations. The acetonitrile and water mixtures for ligands 1a–1d and arene–ruthenium(II) complexes 2a/3a–2d/3d were used as mobile phases, with […] content increasing in the range of 30–70% v/v, at 5% intervals. Values of the chromatographic retention coefficient Rf (as shown Formula (1)) and RM (as shown Formula (2)), based on received chromatograms, were calculated and converted as follows:(1) Rf=a/b (2) RM=log1/Rf−1

[2] = tested on: A549; experiment: MTT cytotoxicity, A549; assay type: cell-based, human; settings: Homo sapiens, 48 h incubation, read-out: Cytotoxic effect, IC50
Experimental: (§1) Cytotoxicity was evaluated against fifteen adherent human cancer cell lines using the MTT test: colorectal adenocarcinoma cells Caco2 (ATCC® HTB-37™), colorectal adenocarcinoma cells HT29 (ATCC® HTB-38™), colon colorectal carcinoma HCT116 (ATCC® CCL-247™), colon adenocarcinoma COLO205 (ATCC® CCL-222™), colorectal adenocarcinoma SW620 (ATCC® CCL-227™), colorectal adenocarcinoma grade IV LoVo (ATCC® CCL-229™), hepatocellular carcinoma Hep 3b (ATCC® HB-8064™), endometrium adenocarcinoma HEC1A (ATCC® HTB-112™), Ishikawa (99040201; Sigma–Aldrich Sigma, St. Louis, MO, USA), cervical adenocarcinoma cells HeLa (ATCC® CCL-2™), lung epithelial carcinoma A549 (ATCC® CRM-CCL-185™), breast epithelial adenocarcinoma cell positive for estrogen and progesterone receptors MCF7 (ATCC® HTB-22™) and negative for expression of estrogen receptor HCC38 (ATCC® CRL-2314™), acute promyelocytic leukemia HL-60 (ATCC® CCL-240™), skin melanoma WM115 (ATCC® CRL-1676™), and 1 suspension cancer cell line: acute lymphoblastic leukemia NALM6 (purchased from the German Collection of Microorganisms and Cell Cultures). HT29, NALM6, HCC-38 and HL-60 cells were cultured in RPMI 1640 medium (Thermo Fisher Scientific, Waltham, MA, USA) supplemented with 10% fetal bovine serum and antibiotic (gentamicin 25 μg ml^−1) (Gibco, Grand Island, New York, NY, USA). For the remaining tumor cell lines, Dulbecco’s minimal essential medium (DMEM, Lonza, Visp, Switzerland) supplemented with 10% fetal bovine serum and antibiotic instead of RPMI 1640 was used. In addition, Human Microvascular Endothelial Cells (HMEC1), which were obtained from the American Type Culture Collection (Manassas, VA, USA), were used as a model of normal cells. HMEC-1 were cultured in MCDB131 medium (Corning Life Sciences, Corning, NY, USA), supplemented with 10% fetal bovine serum, 10 ng/mL Epidermal Growth Factor (Millipore, Burlington, MA, USA) and 10 mM glutamine (Corning Life Sciences). All cells were grown at 37 °C in humidified atmosphere of 5% CO2 in air. The exponential growth of cells was maintained by regular passaging at 90% confluence three times a week using 0.025% trypsin/EDTA (Gibco, Grand Island, New York, NY, USA).
(§2) The cytotoxicity was tested by a standard MTT [3-(4,5-dimethylthiazol-2-yl)-2,5-diphenyltetrazolium bromide] (Sigma, St. Louis, MO, USA) microplate cell viability assay. The anticancer activity of the investigated compounds was evaluated in vitro on the basis of their ability to inhibit the proliferation of various cancer cells. Exponentially growing cells were seeded a day before the experiment into a 96-well microplate (Nunc, Roskilde, Denmark) at a density up to 6–8 × 10^3 cells/mL (depending on the cell line) and exposed to the test compounds at a wide range of concentrations for 48 h. Subsequently, various concentrations of the studied compounds (10^−7–10^−5 M) freshly prepared in DMSO (final concentration of <0.1% DMSO) and diluted with complete culture medium were added. After 48 h incubation, the cells were immediately subjected to a cell viability assay. At this time point, the number of viable cells in each well was estimated by the MTT test. Briefly, 50 µL (5 mg/mL final concentration) of MTT was added to each microplate well. This procedure was then followed by a three- to four-hour incubation at 37 °C. After incubation, MTT solution was replaced with 100 µL DMSO/well, which solubilized the formazan crystals formed by the dehydrogenases of metabolically active cells. Purple formazan absorbance was measured spectrophotometrically at 570 nm.

[3] = tested on: LoVo; experiment: MTT cytotoxicity, LoVo; assay type: cell-based, human; settings: Homo sapiens, 48 h incubation, read-out: Cytotoxic effect, IC50
Experimental: as §1, §2

[4] = tested on: NALM6; experiment: MTT cytotoxicity, NALM6; assay type: cell-based, human; settings: Homo sapiens, NALM-6, 48 h incubation, read-out: Cytotoxic effect, IC50
Experimental: as §1, §2

[5] = tested on: HL60; experiment: MTT cytotoxicity, HL60; assay type: cell-based, human; settings: Homo sapiens, HL-60, 48 h incubation, read-out: Cytotoxic effect, IC50
Experimental: as §1, §2

[6] = tested on: Hela; experiment: MTT cytotoxicity, Hela; assay type: cell-based, human; settings: Homo sapiens, 48 h incubation, read-out: Cytotoxic effect, IC50
Experimental: as §1, §2

[7] = tested on: Ishikawa; experiment: MTT cytotoxicity, Ishikawa; assay type: cell-based, human; settings: Homo sapiens, 48 h incubation, read-out: Cytotoxic effect, IC50
Experimental: as §1, §2

[8] = tested on: SW620; experiment: MTT cytotoxicity, SW620; assay type: cell-based, human; settings: Homo sapiens, SW-620, 48 h incubation, read-out: Cytotoxic effect, IC50
Experimental: as §1, §2

[9] = tested on: HEC1A; experiment: MTT cytotoxicity, HEC1A; assay type: cell-based, human; settings: Homo sapiens, HEC-1-A, 48 h incubation, read-out: Cytotoxic effect, IC50
Experimental: as §1, §2

[10] = tested on: HT29; experiment: MTT cytotoxicity, HT29; assay type: cell-based, human; settings: Homo sapiens, HT-29, 48 h incubation, read-out: Cytotoxic effect, IC50
Experimental: as §1, §2

[11] = tested on: Colo205; experiment: MTT cytotoxicity, Colo205; assay type: cell-based, human; settings: Homo sapiens, COLO 205, 48 h incubation, read-out: Cytotoxic effect, IC50
Experimental: as §1, §2

[12] = tested on: HCC38; experiment: MTT cytotoxicity, HCC38; assay type: cell-based, human; settings: Homo sapiens, 48 h incubation, read-out: Cytotoxic effect, IC50
Experimental: as §1, §2

[13] = tested on: Caco2; experiment: MTT cytotoxicity, Caco2; assay type: cell-based, human; settings: Homo sapiens, Caco-2, 48 h incubation, read-out: Cytotoxic effect, IC50
Experimental: as §1, §2

[14] = tested on: Hep 3b; experiment: MTT cytotoxicity, Hep 3b; assay type: cell-based, human; settings: Homo sapiens, Hep3B, 48 h incubation, read-out: Cytotoxic effect, IC50
Experimental: as §1, §2

[15] = tested on: MCF7; experiment: MTT cytotoxicity, MCF7; assay type: cell-based, human; settings: Homo sapiens, 48 h incubation, read-out: Cytotoxic effect, IC50
Experimental: as §1, §2

[16] = tested on: WM115; experiment: MTT cytotoxicity, WM115; assay type: cell-based, human; settings: Homo sapiens, WM-115, 48 h incubation, read-out: Cytotoxic effect, IC50
Experimental: as §1, §2

| Compound | Lipophilicity, RM [1] | IC50 [2] | IC50 [3] | IC50 [4] | IC50 [5] | IC50 [6] | IC50 [7] | IC50 [8] | IC50 [9] | IC50 [10] | IC50 [11] | IC50 [12] | IC50 [13] | IC50 [14] | IC50 [15] | IC50 [16] |
| --- | --- | --- | --- | --- | --- | --- | --- | --- | --- | --- | --- | --- | --- | --- | --- | --- |
| NC(=S)n1nc(-c2ccccc2)cc1O [1c] | 2.04 | > 200 µM | > 200 µM | 152 ± 26.7 µM | > 200 µM | > 200 µM | 94 ± 2.4 µM | > 200 µM | 110 ± 8.9 µM | > 200 µM | > 200 µM | > 200 µM | > 200 µM | > 200 µM | > 200 µM | > 200 µM |
| CCc1cc(CC)n(C(N)=S)n1 [1b] | 2.51 | > 200 µM | > 200 µM | > 200 µM | > 200 µM | > 200 µM | 100 ± 4.6 µM | > 200 µM | 114 ± 11.3 µM | > 200 µM | > 200 µM | > 200 µM | > 200 µM | > 200 µM | > 200 µM | > 200 µM |
| Cc1cc(C)n(C(N)=S)n1 [1a] | 2.32 | > 200 µM | > 200 µM | > 200 µM | > 200 µM | > 200 µM | 124 ± 4.8 µM | > 200 µM | 111 ± 9.6 µM | > 200 µM | > 200 µM | > 200 µM | > 200 µM | > 200 µM | > 200 µM | > 200 µM |
| Cc1cc(O)n(C(N)=S)n1 [1d] | 1.29 | > 200 µM | > 200 µM | > 200 µM | > 200 µM | > 200 µM | > 200 µM | > 200 µM | 99.1 ± 5.7 µM | > 200 µM | > 200 µM | > 200 µM | > 200 µM | > 200 µM | > 200 µM | 90.9 ± 10.2 µM |
